From paper PMC3967244 (Clinical cancer research : an official journal of the …, 2013)
“Also recorded” adds a separate entry of the source. Read-outs that look alike come from different tables or passages of the source. Marks after values point to notes of the source that are not given here.

Columns and labels:
[1] = test system: radioactive iodine uptake in refractory thyroid cancer; assay: Radiolabeled sodium iodide; assay type: in vivo, human; settings: six of eleven patients with thyroid cancer
[2] = test system: acetylated histone H3 in patient PBMCs; assay: Histone acetylation in peripheral blood mononuclear cells; assay type: in vivo, human
[3] = test system: patients with solid tumors; settings: in vivo
[4] = test system: peripheral T-cell lymphoma (PTCL); settings: two Phase II trials in PTCL; cited from earlier work
[5] = test system: ST segment and T wave changes; assay: ECG evaluation, graded ST segment and T wave changes; assay type: in vivo, human
[6] = Plasma pharmacokinetics by LC/MS
[7] = test system: patients with solid tumors; assay: Phase I toxicity evaluation and dose escalation; settings: four-hour infusion on days 1, 3 and 5 of a 21-day cycle
[8] = test system: differentiated and anaplastic thyroid cancer cell lines; settings: in vitro, cited from earlier work
[9] = test system: cutaneous T-cell lymphoma (CTCL); settings: two Phase II trials, 167 patients with CTCL; cited from earlier work
[10] = test system: RAI avidity of tumor tissue; settings: cited from earlier work
[11] = test system: histone acetylation in PBMCs; settings: day 1, 8 and 15 schedule, four hours; cited from earlier work
[12] = test system: solid tumors; assay: Efficacy evaluation, objective disease response by RECIST v.1; assay type: in vivo, human
[13] = 27 of 28 patients, days 1, 3, and 5 of cycle 1

C/C=C1\NC(=O)[C@H]2CSSCC/C=C/[C@H](CC(=O)N[C@H](C(C)C)C(=O)N2)OC(=O)[C@H](C(C)C)NC1=O [romidepsin, Romidepsin]
RAI uptake on follow-up RAI scans [1]: did not detect meaningful increases; also recorded: None demonstrated significant uptake; also recorded: did not demonstrate a significant increase in RAI uptake | Median increase in histone acetylation over baseline ([2]; 4h time-point, 9.9 mg/m^2): 3 fold | Increase in histone acetylation in PBMCs ([2]; 4h time-point, dose of 3.3 mg/m^2 or higher): ≥ 2 fold | Accumulation in acetylation over the 5 days of treatment ([2]; days 1, 3, 5): no accumulation in acetylation | Patients with no measurable increase in AcH3 ([2]; dose level 1 or 2): Five of six | Apparent threshold dose for histone acetylation in PBMCs ([2]; fold-increase in acetylation over pre-dose levels by cohort): 3.3 mg/m^2 | Patients requiring dose reduction ([3]; human): 7 of 9 | Anorexia ([3]; human, 21 day): 4 # pts (%) | Grade 4 toxicities ([3]; human, 21 day): none in cycle 1 | Hypocalcemia ([3]; human, 21 day): 5 (18%) # pts (%) | Nausea ([3]; human, 21 day): 3 # pts (%) | Recommended phase II dose (RP2D) ([3]; human, 21 day): 7 mg/m^2 | Vomiting ([3]; human, 21 day): 2 # pts (%) | Vomiting ([3]; human, 21 days): 9 (32%) # pts (%) | Febrile neutropenia [3]: no episodes of febrile neutropenia | Grade 3 nausea and vomiting at dose level 4 [3]: not considered dose-limiting | ORR [4]: 25–38% | Patients with Grade 2 ST and T wave changes ([5]; 24-hour timepoint, dose level 5 (7 mg/m^2) and onward): over half of patients | Grade 1 ST and T wave changes ([5]; by dose level): noted from the first dose level onward | Grade 2 ST and T wave changes ([5]; dose levels above 5 mg/m^2): observed frequently | Dose dependence of CMAX and AUCLAST ([6]; 1 to 9 mg/m^2): linear pharmacokinetics | Inter-day patient variability (%CV) for AUCLAST [6, 13]: 2–59% | Inter-day patient variability (%CV) for CMAX [6, 13]: 5–68% | Clearance ([6]; all dose levels): rapid clearance | Plasma romidepsin concentration 14 hours after completing the infusion ([6]; most patients, lower limit of quantitation 2 ng/ml): below the lower limit of quantitation | Dose identified as tolerable [7]: 7 mg/m^2 | Expression of thyroglobulin and NIS ([8]; nontoxic doses for 48 – 72 hours): induced expression | Radioactive iodine uptake [8]: increased radioactive iodine uptake | Overall response rate (ORR) [9]: 34–35% | Patients with increase in RAI avidity ([10]; patients scanned following romidepsin): 2 of 16 | Median increase in histone acetylation in PBMCs [11]: 3 fold | RECIST-defined objective response ([12]; 28 patients with solid tumors, all dose levels): No RECIST-defined objective responses; also recorded: no patient met criteria for RECIST-defined objective response | Patients with stable disease ([12]; of 28 patients, minimum of six cycles (18 weeks)): nine | Range of duration of stable disease, thyroid cancer ([12]; six patients with thyroid cancer): 26–112 weeks

O=C(CCCCCCC(=O)Nc1ccccc1)NO [vorinostat]
RAI in tumor tissue ([10]; one patient): increased
